Test results reported in patent publication US8470779B2, “Catecholamine regulated protein” (CRP40 Inc., priority 2005, dated 2013).

Tests used:
[1] = test system: human CRP40 expression in DRD2 transfected SH-SY5Y human neuroblastoma cells; assay: Western immunoblotting of BQ/human CRP40 expression in DRD2 transfected SH-SY5Y cells; type: cell-based; conditions: 100 μM; for BQ expression compared to controls: overnight, DA D2 receptor transfected SH-SY5Y cells
Experimental: The pcDNA 3.1(+) vector was introduced into SH-S Y5 Y cells by lipofection method (Invitrogen Life Science technology. U.S.A.). Briefly, 24 μg of DRD2 plasmid DNA was mixed with 1.5 ml of Opti MEM media and 60 μl of lipofectamine 2000 reagent was added and mixed with 1.5 ml of Opti MEM media and SH-SY5Y cells. Geneticin-resistant clones stably expressing the D2L receptor were screened by a [3H] spirerone-binding assay and was maintained in RPMI medium (RPMI contained 10% fetal bovine serum, 1 mM glutamate, 50 U/ml of penicillin, and 50 U/ml of streptomycin) with 200 μg/ml of geneticin. Cells were grown to confluency (5-6 days following sub-culturing) in fresh RPMI medium.
SH-SY5Y cells were scraped off and this procedure was repeated a second time. The cells were incubated 5 min, centrifuged at 2000 rpm for 5 min and the supernatant was discarded. The pellet was re-suspended in 0.5 ml 0.35M sucrose buffer (wPMSF), homogenized and centrifuged at 1000 g for 10 min. The supernatant was centrifuged and the pellet was re-suspended in a 0.32M sucrose buffer (wPMSF), homogenized, and centrifuged. The pellet was re-suspended 0.053 ml Tris-EDTA PMSF and labeled as nuclear fraction 1. The supernatant was centrifuged and the resulting supernatant was stored and labeled cytosolic fraction 1. The remaining pellet was re-suspended in 0.150 ml Tris-EDT A-PMSF and labeled mitochondrial fraction 1.
The cells were exposed to the neurotransmitter and/or the neuroleptic (antipsychotic) and left overnight. Western immunoblotting with BQ primary antibody was performed, followed by immunoblotting with polyclonal conjugated horseradish peroxidase secondary antibody.

human CRP40 = assay: Immunohistochemistry localization of human CRP40 in post-mortem nucleus accumbens; conditions: post-mortem NA slide of schizophrenic patient treated with large doses of HAL
Experimental: Three slides were chosen from the 60 samples generously donated by The Stanley Foundation. The slides consisted of: 1) control; 2) schizophrenia patient-drug free; 3) schizophrenic patient-15000K, HAL-treated. The slides were incubated with 4% formaldehyde and diluted in PBS for 30 min. Immediately following, washed sections 3 times with PBS for 5 min, each time and dried off each slide as close as possible to the tissue and outlined the section with the hydrophobic pen. The sections were then blocked by incubating sections with 3% normal goat serum*(NGS) (diluted in PBS containing 0.6% Triton X-100) for 1 h. Next, incubated slides with primary human CRP40 polyclonal antibody diluted in PBS containing 0.6% Triton X-100 (and 3% NGS if necessary) overnight at 4° C. (wrapped in aluminum foil). The following day, the slides were washed 3 times with PBS for 5 min, each time, and incubated slides with FITC secondary antibody diluted in PBS containing 0.6% Triton X-100 for 4 h. Next, the sections were washed 6 times in PBS and slides were mounted with appropriate cover-slips and fixed with nail polish.
Three slides containing post mortem brain specimens of the NA were used in immunohistochemistry studies. […] The next day, the slides were analyzed using a confocal microscope (McMaster University).

[2] = molecular target: T1, recombinant human CRP40 (BQ-fusion protein) (Homo sapiens, UniProt P38646); assay: [3H]-NPA protein-binding assay with BQ-fusion protein; conditions: 100 μM, third of three NPA entries
T1 construct: a fragment of 720 base pairs (Genbank #BQ224193) was amplified; GST (Schistosoma japonicum glutathione S-transferase, pGEX-2T) (N); made in house; host or cells: E. coli BL21 (pGEX-2T)
Experimental: Briefly, the assays were performed in triplicate and consisted of the following solutions and protocol: 50 mM TRIS, 5.0 mM mgCl2, 1.0 mM EDTA, 0.ImM DTT, 0.ImM PMSF, 100 mg/ml Bacitracin and 5.0 mg/ml soybean trypsin; DA (mw=189.6) was dissolved in 0.1% ascorbic acid; each tube was vortexed briefly and incubated in a shaking water bath at 37° C., for 2 h; receptor binding equipment (Brandel, U.S.A.) washed 3 times with distilled water; then repeated washes in assay buffer, 50 nM TRIS, 1 mM EDTA, pH 7.4; 18 test-tubes were set on the binding platform and fiberglass filter paper was put on the platform. The samples were passed through the filter paper with 3 consecutive washes; placed in the scintillation tubes and 5.0 ml Biodegradable Counting Scintillant was added and radioactive counts were measured (Amersham, U.S.A.).
The first protein binding study involved [3+H]NPA and 3 different concentrations of displacement molecules (DA, NPA), 100 μM, 10 μM and 1 μM, respectively. Following protein binding, DPM counts were performed in a Beckman scintillation counter.

[3] = test system: 6-OHDA lesioned hemi-Parkinson's rat model; assay: Apomorphine-induced turning behaviour after striatal injection; type: in vivo; conditions: for apomorphine-induced rotational symptoms: striatal injection on lesioned side
Description: This research study examined the potential of CRP40 as a therapeutic in Parkinson's disease (PD). It has been shown herein that dopamine (DA) can modulate CRP40 expression. Further, knockdown of CRP40 in the medial prefrontal cortex (mPFC) caused deficits in DA-dependant behaviours related to human disease. This study investigated whether the introduction of CRP40 into the lesioned region of a rat model of PD would reduce or reverse symptoms associated with PD compared to control animals. This model is a well-established one in which the nigrostriatal system is hemi-laterally lesioned by injection of the cytotoxin 6-hydroxydopamine (6-OHDA). These animals show phenotypic rotating behaviour as a result of the hemi-lesion.
(§1) The treatment groups were the following: Group 1 (n=3; males) were hemi-lesioned animals treated with a sham injection (CSF) to the Striatum; Group 2 (n=3; males) were hemi-lesioned animals treated with Mortalin2 plasmid injection to the Striatum; Group 3 (n=3; males) were hemi-lesioned animals treated with CRP40 plasmid injection to the Striatum; Group 4 (n=2; males) were hemi-lesioned animals treated with Mortalin2 protein injection to the Striatum; Group 5 (n=2; males) were hemi-lesioned animals treated with CRP40 protein injection to the Striatum; Group 6 (n=3; males) were controls, non-lesioned, and received a CSF injection to the Striatum.
Once the animals were comfortable with the experimenter, they were subjected to a series of behavioural tests for baseline measures. In addition to the apomorphine-induced rotation, other tests included prepulse inhibition (PPI) and locomotor activity tests. The apomorphine-induced rotations test involves giving each animal a subcutaneous injection of apomorphine according to body weight. Since the animals are lesioned hemi-laterally at the nigrostriatal pathway, they show compulsive turning behaviour in a direction contra-lateral to the lesion. For this project, there was interest in the number of rotations each animal made in a ten minute testing period. PPI is a test of sensorimotor gating where animals are exposed to a startling acoustic pulse. This pulse, however, follows a subtle pre-pulse which allows for inhibition of the startle response. Locomotor activity test involves cubic chambers lined with infrared sensors that detect any and all movements made by the animal over a three hour testing period. For this experiment “total distance travelled” measurements were of interest.
Once all baseline data was collected, the rats were placed under gaseous anaesthesia and injected, via cannulae, with one of the five following treatments: CSF sham (Striatal n=3), CRP40 plasmid DNA (Striatal n=3), MOT-2 plasmid DNA (Striatal n=3), CRP40 protein (Striatal n=2), MOT-2 protein (Striatal n=2). […]

[4] = test system: 6-OHDA lesioned hemi-Parkinson's rat model; assay: HPLC of DA levels in SN and striatum; type: in vivo; conditions: striatal-injected rats
Description: as §1
Once all baseline data was collected, the rats were placed under gaseous anaesthesia and injected, via cannulae, with one of the five following treatments: CSF sham (Striatal n=3), CRP40 plasmid DNA (Striatal n=3), MOT-2 plasmid DNA (Striatal n=3), CRP40 protein (Striatal n=2), MOT-2 protein (Striatal n=2).
After recovery from surgery, all animals were again tested using the same behavioural methods for post-intervention measures. PPI and locomotor activity were tested at 7 and 14 days post-injection, and apomorphine-induced rotation was tested at various time points between days 2 and 14 post-injection. On day 15 post-injection, all rats were sacrificed. […]

T1 sequence (P38646 334-578 E571K/D572N/R574P): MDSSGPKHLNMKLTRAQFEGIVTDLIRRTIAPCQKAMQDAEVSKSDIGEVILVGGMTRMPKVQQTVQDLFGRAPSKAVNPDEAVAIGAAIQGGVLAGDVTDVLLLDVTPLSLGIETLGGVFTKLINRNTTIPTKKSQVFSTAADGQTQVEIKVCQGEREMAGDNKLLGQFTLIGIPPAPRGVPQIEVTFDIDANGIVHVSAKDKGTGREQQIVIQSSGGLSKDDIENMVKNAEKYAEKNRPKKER

For NCCc1ccc(O)c(O)c1 [DA, dopamine], the “human CRP40 protein expression in the nuclear fraction relative to control cells” value ([1]; SH-SY5Y nuclear fraction) was “significant increase” and the “BQ expression compared to controls” value [1] was “significant increase”.

For O=C(CCCN1CCC(O)(c2ccc(Cl)cc2)CC1)c1ccc(F)cc1 [Haloperidol, haloperidol], the “BQ expression compared to controls” value [1] was “significant increase” and the “localization of human CRP40 antibody staining” value (human CRP40) was “located almost exclusively within the nucleus”.

In the case of CCCN1CCc2cccc3c2[C@H]1Cc1ccc(O)c(O)c1-3 [NPA, N-propylnorapomorphine], the “amount of displacement of [3H]NPA” value [2] is reported as 64.3%.

B1: CRP40 protein: 346 amino acid catecholamine-regulated protein, SEQ ID NO: 8 (protein, listed as Homo sapiens)
chain: MDSSGPKHLNMKLTRAQFEGIVTDLIRRTIAPCQKAMQDAEVSKSDIGEVILVGGMTRMPKVQQTVQDLFGRAPSKAVNPDEAVAIGAAIQGGVLAGDVTDVLLLDVTPLSLGIETLGGVFTKLINRNTTIPTKKSQVFSTAADGQTQVEIKVCQGEREMAGDNKLLGQFTLIGIPPAPRGVPQIEVTFDIDANGIVHVSAKDKGTGREQQIVIQSSGGLSKDDIENMVKNAEKYAEEDRRKKERVEAVNMAEGIIHDTETKMEEFKDQLPADECNKLKEEISKMRELLARKDSETGENIRQAASSLQQASLKLFEMAYKKMASEREGSGSSGTGEQKEDQKEEKQ
B1 was tested, and the apomorphine-induced rotational symptoms ([3]; day 10 post-injection) was “alleviated”, the apomorphine-induced rotational symptoms ([3]; day 14 post-injection) was “beginning to increase again” and the apomorphine-induced rotational symptoms ([3]; days 4 and 7 post-injection) was “reversal of rotational symptoms”. For the same molecule, the “apomorphine-induced rotational symptoms, overall” value ([3]; striatal injection, no time point stated) was “completely reversed” and the “levels of DA in the SN & striatum (HPLC)” value [4] was “increase in dopamine concentration at both the SN and the striatum”.
